Measurements published in US6066628A, “Non-iron metalloporphyrins and methods of use” (Emory University, priority 1998, dated 2000).

Experiments:
bacteria = format: cell-based
yeasts = experiment: Yeast growth inhibition; format: cell-based
Candida krusei = experiment: MIC 80 microdilution, clinical yeast isolates; format: cell-based
Candida pillosus = experiment: MIC 80 microdilution, clinical yeast isolates; format: cell-based
Candida glabrata = experiment: MIC 80 microdilution, clinical yeast isolates; format: cell-based
Method: (§1) MICs of Ga-UPI against selected clinical yeast isolates. Growth was
(§2) scored after 24 and 48 hours of incubation.

Candida albicans = experiment: MIC 80 microdilution, clinical yeast isolates; format: cell-based
Method: as §1, §2

Candida tropicalis = experiment: MIC 80 microdilution, clinical yeast isolates; format: cell-based
Method: as §1, §2

Cryptococcus neoformans = experiment: MIC 80 microdilution, clinical yeast isolates; format: cell-based
Method: as §1, §2

M. smegmatis [1] = experiment: Minimal bactericidal concentration; format: cell-based, Mycobacterium smegmatis; details: reduces plating efficiency more than 99.9%; minimal exposure to light
S. aureus [2] = experiment: Minimal bactericidal concentration; format: cell-based, Staphylococcus aureus; details: reduces plating efficiency more than 99.9%; minimal exposure to light
Method: Minimal bactericidal concentrations (MBCs) were determined essentially the same way as MICs except that the amount of killing with a particular concentration of porphyrin derivative was determined by plating on solid microbiological media (LB plates or LB+Tween 80). Media were solidified by the incorporation of 1.5% agar (Difco Laboratories). Concentrations of porphyrins that produced 99.9% reduction in bacterial counts were considered bactericidal [Hindler et al. (1994) supra].
MBC were determined by plating bacterial cultures that have been incubate
in the presence of MPs at concentrations higher than MIC. MBC was defined
as a concentration of a particular MP which reduces the plating efficienc
more than 99.9%. Experiments were done with minimal exposure to light
(addition of porphyrins waa done in the presence of artifical light).

Y. enterocolitica [3] = experiment: Minimal bactericidal concentration; format: cell-based; details: reduces plating efficiency more than 99.9%; minimal exposure to light
S. pyogenes A = experiment: Disc diffusion sensitivity test; format: cell-based, Streptococcus pyogenes; details: disc ~50 μg MP
P. mirabills = experiment: Disc diffusion sensitivity test; format: cell-based, Proteus mirabilis; details: P. mirabilis; disc ~50 μg MP
K. pneumoniae = experiment: Disc diffusion sensitivity test; format: cell-based, Klebsiella pneumoniae; details: K. pneumoniae; disc ~50 μg MP
Y. enterocolitica [4] = experiment: microbe, parasite or virus in culture; format: cell-based
[5] = test system: Streptococcus pyogenes JRS4; format: cell-based; details: S. pyogenes JRS4 (Table 4)
K. oxytoca = experiment: Disc diffusion sensitivity test; format: cell-based, Klebsiella oxytoca; details: K. oxytoca; disc ~50 μg MP
M. avium = details: M. avium
C. freundii = experiment: Disc diffusion sensitivity test; format: cell-based, Citrobacter freundii; details: C. freundii; disc ~50 μg MP
S. aureus [6] = format: cell-based, Staphylococcus aureus; details: methicillin-resistant S. aureus IR219; Nutrient broth (Table 2)
E. faecalis = experiment: Disc diffusion sensitivity test; format: cell-based, Enterococcus faecalis; details: disc ~50 μg MP; note: key: -: resistant; N: not determined
E. aerogenes = experiment: Disc diffusion sensitivity test; format: cell-based, Enterobacter aerogenes; details: E. aerogenes; disc ~50 μg MP
S. aureus [7] = experiment: Disc diffusion sensitivity test; format: cell-based, Staphylococcus aureus; details: S. aureus; disc ~50 μg MP
M. tuberculosis = format: cell-based, Mycobacterium tuberculosis; details: pathogenic M. tuberculosis
M. smegmatis [8] = format: cell-based, Mycobacterium smegmatis
E. coli = experiment: Disc diffusion sensitivity test; format: cell-based, Escherichia coli; details: E. coli; disc ~50 μg MP
F. menigosepticum = experiment: Disc diffusion sensitivity test; format: cell-based, Flavobacterium meningosepticum; details: F. meningosepticum; disc ~50 μg MP
M tuber. H37Rv = experiment: Disc diffusion sensitivity test; format: cell-based, Mycobacterium tuberculosis; details: disc ~50 μg MP
M tuber. H37Pa = experiment: Disc diffusion sensitivity test; format: cell-based, Mycobacterium tuberculosis; details: disc ~50 μg MP
Ps. aeruginosa = experiment: Disc diffusion sensitivity test; format: cell-based, Pseudomonas aeruginosa; details: disc ~50 μg MP; note: key: -: resistant; N: not determined
Y. enterocolitica [9] = experiment: Disc diffusion sensitivity test; format: cell-based; details: disc ~50 μg MP

CC1=C(CCC(=O)O)C2=Cc3c(C)c(CCC(=O)O)c4[n]3[Ga]([Cl])[n]3c(c(C)c(CCC(=O)O)c3=CC1=N2)=CC1=NC(=C4)C(C)=C1CCC(=O)O [Ga-COPI, Ga-coproporphyrin I]
antibacterial activity (bacteria): seriously limited in their antibacterial activities | inhibition of growth of yeast (yeasts): able to inhibit growth of yeast

O=C(O)CCC1=C(CC(=O)O)C2=NC1=Cc1c(CC(=O)O)c(CCC(=O)O)c3[n]1[Ga]([Cl])[n]1c(c(CCC(=O)O)c(CC(=O)O)c1=CC1=NC(=C3)C(CC(=O)O)=C1CCC(=O)O)=C2 [Ga-UPI, Ga-uroporphyrin I]
MIC 80 (Candida krusei; 97-058, 24 hours): 1 µg/mL | MIC 80 (Candida krusei; 97-058, 48 hours): 4 µg/mL | MIC 80 (Candida krusei; 97-059, 24 hours): 2 µg/mL | MIC 80 (Candida krusei; 97-059, 48 hours): 8 µg/mL | MIC 80 (Candida krusei; ATCC-6258, 24 hours): 1 µg/mL | MIC 80 (Candida krusei; ATCC-6258, 48 hours): 2 µg/mL | antibacterial activity (bacteria): seriously limited in their antibacterial activities | MIC 80 (Candida pillosus; 97-056, 24 hours): 1 µg/mL | MIC 80 (Candida pillosus; 97-056, 48 hours): 2 µg/mL | MIC 80 (Candida pillosus; 97-057, 24 hours): 2 µg/mL | MIC 80 (Candida pillosus; 97-057, 48 hours): 8 µg/mL | inhibition of growth of yeast (yeasts): able to inhibit growth of yeast | MIC 80 (Candida glabrata; 97-049, 24 hours): 8 µg/mL | MIC 80 (Candida glabrata; 97-049, 48 hours): 32 µg/mL | MIC 80 (Candida glabrata; 97-050, 24 hours): 8 µg/mL | MIC 80 (Candida glabrata; 97-050, 48 hours): 16 µg/mL | MIC 80 (Candida glabrata; 97-051, 24 hours): 8 µg/mL | MIC 80 (Candida glabrata; 97-051, 48 hours): 32 µg/mL | MIC 80 (Candida glabrata; 97-052, 24 hours): 8 µg/mL | MIC 80 (Candida glabrata; 97-052, 48 hours): 32 µg/mL | MIC 80 (Candida glabrata; 97-053, 24 hours): 8 µg/mL | MIC 80 (Candida glabrata; 97-053, 48 hours): 16 µg/mL | MIC 80 (Candida albicans; 97-010, 24 hours): 2 µg/mL | MIC 80 (Candida albicans; 97-010, 48 hours): 8 µg/mL | MIC 80 (Candida albicans; 97-012, 24 hours): 2 µg/mL | MIC 80 (Candida albicans; 97-012, 48 hours): 8 µg/mL | MIC 80 (Candida albicans; 97-014, 24 hours): 2 µg/mL | MIC 80 (Candida albicans; 97-014, 48 hours): 8 µg/mL | MIC 80 (Candida albicans; 97-015, 24 hours): 2 µg/mL | MIC 80 (Candida albicans; 97-015, 48 hours): 8 µg/mL | MIC 80 (Candida albicans; 97-031, 24 hours): 2 µg/mL | MIC 80 (Candida albicans; 97-031, 48 hours): 16 µg/mL | MIC 80 (Candida tropicalis; 97-054, 24 hours): 16 µg/mL | MIC 80 (Candida tropicalis; 97-054, 48 hours): 32 µg/mL | MIC 80 (Candida tropicalis; 97-055, 24 hours): 8 µg/mL | MIC 80 (Candida tropicalis; 97-055, 48 hours): 16 µg/mL | MIC 80 (Cryptococcus neoformans; 97-044, 24 hours): 16 µg/mL | MIC 80 (Cryptococcus neoformans; 97-044, 48 hours): 16 µg/mL | MIC 80 (Cryptococcus neoformans; 97-045, 24 hours): 16 µg/mL | MIC 80 (Cryptococcus neoformans; 97-045, 48 hours): 32 µg/mL | MIC 80 (Cryptococcus neoformans; 97-046, 24 hours): 16 µg/mL | MIC 80 (Cryptococcus neoformans; 97-046, 48 hours): 16 µg/mL | MIC 80 (Cryptococcus neoformans; 97-047, 24 hours): 8 µg/mL | MIC 80 (Cryptococcus neoformans; 97-047, 48 hours): 16 µg/mL | MIC 80 (Cryptococcus neoformans; 97-048, 24 hours): 16 µg/mL | MIC 80 (Cryptococcus neoformans; 97-048, 48 hours): 16 µg/mL | Minimal bactericidal concentration (MBC) (M. smegmatis [1]): 10 | Minimal bactericidal concentration (MBC) (S. aureus [2]): 10 | Minimal bactericidal concentration (MBC) (Y. enterocolitica [3]): 10

O=C(O)CCC1=C(CC(=O)O)C2=Cc3c(CC(=O)O)c(CCC(=O)O)c4[n]3[Ga]([Cl])[n]3c(c(CCC(=O)O)c(CC(=O)O)c3=CC3=NC(=C4)C(CC(=O)O)=C3CCC(=O)O)=CC1=N2 [Ga-UPIII, Ga-uroporphyrin III]
antibacterial activity (bacteria): seriously limited in their antibacterial activities | inhibition of growth of yeast (yeasts): able to inhibit growth of yeast

Indium (III) protoporphyrin IX chloride [In-PPIX]
diameter (mm) of the inhibition zone (S. pyogenes A): 13 mm | diameter (mm) of the inhibition zone (P. mirabills): 9 mm | diameter (mm) of the inhibition zone (K. pneumoniae): 9 mm | Minimal inhibitory concentration (MIC) (Y. enterocolitica [4]): 0.2 | antibacterial activity (Y. enterocolitica [4]): inhibitory | MIC [5]: 0.1 µg/mL | diameter (mm) of the inhibition zone (K. oxytoca): 9 mm | sensitivity (preliminary experiments) (M. avium): sensitive | diameter (mm) of the inhibition zone (C. freundii): 9 mm | Minimal inhibitory concentration (MIC) (S. aureus [6]): 1.6 µg/mL | diameter (mm) of the inhibition zone (E. faecalis): - | diameter (mm) of the inhibition zone (E. aerogenes): 9 mm | Minimal bactericidal concentration (MBC) (M. smegmatis [1]): 10 | Minimal bactericidal concentration (MBC) (S. aureus [2]): > 13 | diameter (mm) of the inhibition zone (S. aureus [7]): 15 mm | sensitivity (preliminary experiments) (M. tuberculosis): sensitive | antibacterial activity (M. smegmatis [8]; M. smegmatis): inhibitory | Minimal inhibitory concentration (MIC) (M. smegmatis [8]; M. smegmatis LR222, LB + Tween 80 (Table 2)): 0.4 µg/mL | diameter (mm) of the inhibition zone (E. coli): - | diameter (mm) of the inhibition zone (F. menigosepticum): - | diameter (mm) of the inhibition zone (M tuber. H37Rv): - | Minimal bactericidal concentration (MBC) (Y. enterocolitica [3]): > 13 | diameter (mm) of the inhibition zone (M tuber. H37Pa): 17 mm | diameter (mm) of the inhibition zone (Ps. aeruginosa): - | diameter (mm) of the inhibition zone (Y. enterocolitica [9]): 12 mm
